Measured values from a melting point compilation (Tetko et al.; mined from patent text by program, amines drawn as free bases though some values may be those of a salt).

melting point [°C]	SMILES
159 to 160	Nc1ccc(/C=C/c2ccccc2)nc1
202 to 204	O=C1c2c(O)ccc(O)c2C(=O)c2c(NCCN3CCCC3CO)ccc(NCCN3CCCC3CO)c21 (stereo not drawn)
42 to 44	Brc1cncc(-c2ccccc2)c1
140 to 141	CS(=O)(=O)c1ccc(C2=C(c3ccc4c(c3)OCO4)CCC2)cc1
58 to 63	CCOC(=O)c1sc(Br)c(Br)c1Cl
66 to 69	CCCCCCCC(=O)c1ccc(CCC(CC)(CCOC(C)=O)NC(C)=O)cc1 (stereo not drawn)
210	O=C1CCC2=C1C(c1ccc(F)c(Br)c1)C1=C(CCCCS1)N2 (stereo not drawn)
182 to 184	CCC1(c2cccs2)OCC(=O)Nc2ccc(-c3sc(C#N)cc3C)cc21 (stereo not drawn)
112 to 114	Cc1cccc2sc(-n3nc(CCCO)cc3-c3ccc(Cl)cc3)nc12
61 to 62	CCOCCC(=Nc1ccc(Cl)cc1C(F)(F)F)n1ccnc1
186	O=C(O)CCCCCCCn1c(-c2cc(I)c(O)c(I)c2)nc(-c2ccccc2)c1-c1ccccc1
137 to 138	FC(F)(F)c1ccc(-c2cc(Oc3ccc4cccnc4c3)ncn2)c(NCC2CCCCC2)c1
122 to 125	CCc1ccc2oc(C(=O)Nc3ccc(-c4ccc(S(=O)(=O)NC(C(=O)O)C(C)C)cc4)cc3)c(C)c2c1O (stereo not drawn)
138 to 140	O=C1N[C@H](Cc2ccccc2C(F)(F)F)[C@H](c2ccc(F)cc2)O1 (racemic)
120 to 121	CCOC(=O)c1csc(S)n1
240 to 242	CC(=NOCCOc1ccc(CC2SC(=O)NC2=O)cc1)c1ccc(O)nc1 (stereo not drawn)
285	NC(=O)c1sc2ncnc(-c3cc(O)c4c(c3)OCC4)c2c1N
100 to 102	O=C(Oc1ccc([N+](=O)[O-])cc1)C(O)O
120 to 122	CN1CCN(CCCc2cc3ccccc3c(=O)[nH]2)CC1
152	COC(=O)c1ccc2nc(-c3ccc(C(C)(C)C)cc3)[nH]c2c1
80 to 81	Cc1ccc(S(=O)(=O)N(C)c2ccc(Cl)nn2)cc1
170 to 172	CCN(C)C(=O)/C=C/CSc1nc(N)cc(Cl)n1
73 to 76	Cc1nc2ccc3c(c2o1)C(CCNC(=O)c1ccccc1)CC3 (stereo not drawn)
195 to 196	CC1(C)C(NN)=Nc2ccccc2C1(O)c1ccccc1 (stereo not drawn)
167 to 168	COc1nc2cc([N+](=O)[O-])cc(C)c2nc1OC

melting point [°C]	SMILES
61.5 to 64.5	CCOC(=O)C1=C(C)N=C(OC)N(C(=O)OCC)C1c1cccc([N+](=O)[O-])c1 (stereo not drawn)
126 to 127	CCOc1nn(Cc2ccc(OCc3cn(-c4ccccn4)nc3C)cc2)cc1CCC(=O)O
260	CCCCc1cnc2ccc(C(=O)O)cc2c1O
150 to 151	CCOC(=O)COc1cccc(/C=C/c2nc3ccccc3s2)c1
146 to 147	C[C@H](Nc1nc(Cl)nc(Cl)n1)c1ccccc1
120 to 122	CC(C)(C)OC(=O)NCCNC(=O)c1ncccc1Oc1ccc(Cl)cc1
120 to 122	OCC1OC(n2cnc3c(NC4CCc5ccccc54)ncnc32)C(O)C1O (stereo not drawn)
214	CN1CCN(c2c(F)c(NCc3ccccc3)c3c(c2F)n2c(=O)n(OCc4ccccc4)c(=O)cc2n3C2CC2)CC1
216 to 217	Cc1ccc(NC(=O)c2cc(Br)c(Br)s2)cc1C
70	CC(OS(C)(=O)=O)c1ccc([N+](=O)[O-])cc1 (stereo not drawn)
101 to 102	CC(=O)c1cccc(Oc2ncccc2OCCCc2ccncc2O)c1
250 to 255	CC12CC=C3c4ccc(O)cc4CCC3C1CCC2=O (stereo not drawn)
304 to 306	O=C(Nc1ccc(-c2ncc(-c3ccc(NC(=O)C4CCCCCC4)cc3)[nH]2)cc1)c1ccc(Cl)c(Cl)c1
66 to 68	Nc1ccc2c(ccn2Cc2ccccc2)c1
174 to 175	CN(CC(=O)[C@@H](N)Cc1ccccc1)C(=O)N1CCC[C@H]1C(=O)O
202 to 203	CCn1c2c(c3ccccc31)Cc1c(C(=O)OC)c(C(=O)OC)c(C)n1C2
167 to 169	N#Cc1ccc(NC(=O)C(=O)N2CCC(Cc3ccc(F)cc3)CC2)cc1
177 to 179	COc1ccc(C(=O)c2ccc(-c3nc4ccccc4o3)cc2)c(O)c1
188 to 193	[N-]=[N+]=Nc1ccnc2c(NC(=O)c3c(Cl)cccc3Cl)cccc12
144	CNC(=O)n1sc(SC)nc1=O
92.5	CCCCOc1ccc(S(=O)(=O)C2(C(=O)O)CCN(Cc3cccc(Oc4ccccc4)c3)CC2)cc1
102 to 103	OCc1c(Cl)nc(C2CCCC2)n1Cc1ccccc1
167 to 169	CCc1cccc(C(=O)NN(C(=O)c2cc(C)cc(C)c2)C(C)(C)C)c1C
120	COc1ccc(CCN(C)CCCCc2ccc(NC(=O)c3cccc4c(=O)c5ccccc5[nH]c34)cc2)cc1OC
98 to 99	CSc1ccc(NC(C#N)c2ccc(OC(F)F)cc2)cc1 (stereo not drawn)

melting point [°C]	SMILES
91 to 94	C[C@@H](c1ccc(-c2ccn(C3CC3)c(=O)c2)cc1)N1CC[C@](CC(C)(C)O)(c2ccccc2)OC1=O
69 to 72	C#CCn1ccn(C)c1=O
158 to 159	CN1CC(CCCl)N(C)c2nc3ccccc3n2C1=O (stereo not drawn)
180 to 182	CC(=O)OC1CCC2(C)C3CCC4(C)C(C(C)CCCC(C)(C)O)CCC4C3CCC2(O)C1 (stereo not drawn)
122 to 124	CCN1CNS(=O)(=O)c2cc(Br)ccc21
87 to 89	CCCN(CCCNc1c(Cl)cn[nH]c1=O)CCOc1cccc2c1OCCO2
136 to 138	CCCc1nn(C)c2c(=O)n(CCCOc3ccc(OC(C)(C)C(=O)O)cc3)cnc12
131 to 133	Nc1ccc2c(c1)c(=O)[nH]c(=O)n2CCCCN1CCC(OC(c2ccccc2)c2ccccc2)CC1
86 to 87	Cc1cccc(CC(=O)O)c1OCCCc1cn(-c2ccc(C(F)(F)F)cn2)nc1C(C)(C)C
162 to 168	Cc1noc(NS(=O)(=O)c2ccccc2-c2ccc(-c3ncco3)cc2Cn2nccn2)c1C
103 to 104	CCSc1cc(C#N)c(Cl)cn1
77 to 79	OC1CN(CCC#Cc2ccccc2)CCC1c1cccc(C(F)(F)F)c1 (stereo not drawn)
139 to 140	CCCC/C(=C\C(=O)O)c1cc(OC)c(O)c2c(CC)cccc12
85 to 86	Oc1cc(O)cc(OCc2ccccc2)c1
141 to 143	c1ccc2nc3c(nc2c1)OCC1CCCCN31 (stereo not drawn)
107 to 109	CCOC(=O)C1=Cc2ccsc2S(=O)(=O)N1c1cccc(OC)c1
175	O=C(NC(Cc1ccc([N+](=O)[O-])cc1)C(=O)C(F)(F)F)c1ccccc1 (stereo not drawn)
181 to 183	C=CCNc1nc(N)nc2c1ncn2C1C=CC(CO)C1 (stereo not drawn)
158 to 159	COC(=O)c1cn2c(=O)c(C)c(C)nc2s1
194	COc1ccc(N2CN(C)CNC2=S)cc1
228 to 230	CC12CCC(=O)C=C1CCC1C3CC(OCC(=O)c4ccccc4)C(O)(C(=O)CO)C3(C)CC(O)C12F (stereo not drawn)
> 250	O=C1CCCC2=C1C(c1ccc(F)cc1O)C1=C(CCS1)N2 (stereo not drawn)
158 to 166	N#Cc1cnc2sc(Br)cc2c1Cl
142 to 143	Cc1oc(-c2cccs2)nc1COc1ccc(CON=C(CCC(=O)O)c2ccccc2)cc1
> 300	COc1ccccc1-n1c(-c2ccc(C=C(C#N)C#N)s2)ccc1-c1ccc(C(C#N)=C(C#N)C#N)s1

melting point [°C]	SMILES
158	CCC(CC)C(=O)O[C@H]1C[C@H](O)C=C2C=C[C@H](C)[C@H](CC[C@@H]3C[C@@H](O)CC(=O)O3)[C@H]21
55 to 57	CCC(=O)N1CCSc2cccc(Cl)c2C1
264	CCCCCCCCCNC(C)C(=O)O (stereo not drawn)
112 to 114	Cc1cn(C(C)(C)C(=O)N(C)C)nc1-c1ccccc1F
88 to 92	Cc1nc(-c2cc3cc(OCCNC[C@H](O)c4cccc(Cl)c4)ccc3o2)no1
172 to 173	Cc1cc2c(c3c1NC(=O)CC3)OC(CO)C2 (stereo not drawn)
236 to 238	Cc1cc(C#N)cn2cc(-c3cccc(-c4ccc(C#N)cc4)c3)nc12
118	CN(C(=O)Nc1ccc(Cl)c(Cl)c1)S(=O)C(C)(C)C (stereo not drawn)
231 to 232	CC(C)(C)C(NC(=O)c1cccc(F)c1)Nc1c(Nc2cccnc2)c(=O)c1=O (stereo not drawn)
> 280	Cc1ccc(C(=O)N[C@H]2CC[C@H](O)CC2)c(Nc2ccc3[nH]ncc3c2)n1
145	O=C1CC2(CCCC2)c2ccc(O)cc21
150 to 151	CCCC1=C(C(=O)OCC)C(c2ccccc2Cl)c2cn(C)nc2N1 (stereo not drawn)
63 to 65	COCC(=O)NCC1CCC(Nc2nc3c(s2)CCCc2ccc(F)cc2-3)CC1 (stereo not drawn)
195 to 196	CC1(Br)C(Br)=CC(O)=C(Br)C1Br (stereo not drawn)
100 to 104	CCC(C)(C)c1cc(C(=O)c2ccccc2)c(O)cc1O
52 to 54	CCN(CC)CCC(N)=NO
162	CCCCc1cc2c3n(ccc-2n1)CC(C)=N3
152 to 154	Cc1cccc(C)c1NC(=O)NCCCNC(C)C
67 to 69	C[Si]1(C)CCCCCCCC[Si](C)(C)O[Si](C)(C)CCCCCCCC[Si](C)(C)O1
175 to 177	Cc1cc(C)c2c(=O)n(CC(=O)N3CCNCC3)sc2n1
140 to 142	CC(C)CC(=O)c1c(-c2ccc3cc(OCC(=O)O)cc(Br)c3c2)oc2ccccc12
114 to 116	CC(C)Cc1nc2ccc(Cl)cc2c(-c2ccccc2)c1CN
219 to 221	CCOC(=O)c1cc(O)c2nc(C)c(C)n2c1

SMILES	melting point [°C]
CCN(CC)CCN1C(=O)C(C)(C)N=C(c2ccccc2Cl)c2cc([N+](=O)[O-])ccc21	70
CN(C(=O)Cc1ccc(Cl)c(Cl)c1)[C@@H]1CCC(=O)C[C@H]1N1CCCC1 (relative stereo)	148 to 149
CCN(C(C)=O)c1cccc(-c2ccn3ncc(C#N)c3n2)c1	194 to 196
CN1CC=C(c2cn(C)c3ccc(NS(C)(=O)=O)cc23)CC1	198 to 202
NC(=O)c1ncn2c1[C@@H]1CCN1C(=O)c1c(Br)cccc1-2	314 to 317
